Results as given in patent US4985445A, “Cancer cell metastasis inhibitors and novel compounds” (Meiji Seika Kaisha, Ltd., priority 1988, dated 1991).
Like-named read-outs stand apart in the source and are kept apart here.

System: B16 subline of high pulmonary metastatic potential
Settings: Table 2, B16 subline, 3 days
Procedure: (§1) The B16 subline of high pulmonary metastatic potential and murine tumor cell line L 929 were cultured in DME medium supplemented with 10% bovine fetal serum at 37° C. in the presence of 5% CO2. Then, cells were detached from the Petri dish with trypsin-EDTA solution. The B16 subline and L 929 were suspended in the medium described above in 1×10^4 cells/ml and 1×10^3 cells/ml, respectively. Each suspension, 150 μl, was added to 50 μl of N-(3-phenylpropyl)-1-deoxynojirimycin solution or Adriamycin (control) solution. Incubation was performed for 3 days for the B16 subline and for 4 days for L 929 strain.
as §1, with “of N-(4-phenoxy-trans-2-butenyl)-1-deoxynojirimycin” for “of N-(3-phenylpropyl)-1-deoxynojirimycin”, “days in” for “days for”, “L 929.” for “L 929 strain.”
as §1, with “of D-glucaro-δ-lactam calcium salt” for “of N-(3-phenylpropyl)-1-deoxynojirimycin”, “(control) solutions.” for “(control) solution.”, “days in” for “days for”, “L 929.” for “L 929 strain.”
The B16 subline of high pulmonary metastatic potential and murine tumor cell line L 929 were cultured in DME medium supplemented with 10% bovine fetal serum at 37° C. in the presence of 5% CO2. Then, cells were detached from the Petri dish with trypsin-EDTA solution. The B16 subline and L 929 were suspended in the medium described above in 1×10^4 cells/ml and 1×10^3 cells/ml, respectively. Each suspension, 150 μl, was added to 50 μl of 2,6-di-O-(1-(p-chlorobenzoyl)-5-methoxy-2-methylindole-3-acetyl)-D-gluco-δ-lactam solution or and Adriamycin (control) solutions. Incubation was performed for 3 days in the B16 subline and for 4 days in L 929.
The B16 subline of high pulmanary metastatic potential and murine tumor cell line L 929 were cultured in DME medium supplemented with 10% bovine fetal serum at 37° C. in the presence of 5% CO2. Then, cells were detached from the Petri dish with trypsin-EDTA solution. The B16 subline and L 929 were suspended in the medium described above in 1×10^4 cells/ml and 1×10^3 cells/ml, respectively. Each suspension, 150 μl, was added to 50 μl of 6-O-triphenylmethyl-D-gluco-δ-lactam solution or Adriamycin (control) solutions. Incubation was performed for 3 days in the B16 sibline and for 4 days in L 929.
The B16 subline of high pulmonary metastatic potential was inoculated into DME medium supplemented with 10% bovine fetal serum and 30 μg/ml of 1-deoxynojirimycin was added thereto followed by incubation at 37° C. for 3 days in the presence of 5% CO2. […] Next, the cells were detached from the Petri dish with trypsin-EDTA solution. The cells were suspended in PBS- in 1×10^6 cells/ml as viable cells. This suspension, 0.1 ml, was intravenously injected in the tail vein of the mouse BDF1 (8 week age, male; 1 group, 3 mice). After feeding for 14 days, the mouse was sacrificed to excise the lungs. The number of colonies of the B16 subline on the surface of and in the lungs was counted.
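Note: + means growth and ± means marked inhibition and - means cell death.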

For `OC[C@@H]1[C@@H](O)[C@H](O)[C@@H](O)CN1CCCc1ccccc1` [N-(3-Phenylpropyl)-1-deoxynojirimycin, N-(3-phenylpropyl)-1-deoxynojirimycin], the Growth (30 μg/ml) was “+”, the Growth (100 μg/ml) was “+” and the Growth (300 μg/ml) was “±”.
